Values quoted from earlier work in US7105698B2, “Process for the separation of R(-)-and S(+)-5-[2-[[2-(2-ethoxyphenoxy)ethyl]amino]propyl]-2- methoxybenzenesulfonamide” (Ragactives, S.L., priority 2002, dated 2006).

Conditions: ratio R(−)-I versus S(+)-I; prior studies

CCOc1ccccc1OCCN[C@H](C)Cc1ccc(OC)c(S(N)(=O)=O)c1 [R(−)-I, R(−)-5-[2-[[2-(2-ethoxyphenoxy)ethyl]amino]propyl]-2-methoxybenzenesulfonamide]
pharmacological action of R(−)-I relative to its S(+)-I enantiomer: up to 320 times
